# In patent US20230107642A1 (Erasca, Inc., priority 2020, published 2023):
# Biological target: T1, K-Ras G12C (Homo sapiens, UniProt P01116, G12C)
# T1 construct: This protein contained 188 amino acids in total, including an N-terminal 6-Histidine tag; made in house; host or cells: E. coli BL21
# Test: CAF assay (% CAF; method in Example 7, not in this part)
# Type: binding
# Conditions: 10 uM compound, 1 h incubation
row,Compound,"% CAF @ 10 uM, 1h"
1,"C=CC(=O)N1CCN(c2nc(=O)n3c4c(c(-c5c(F)ccc6[nH]ncc56)c(Cl)cc24)SCC3)[C@@H](C)C1 [Example 408, 7-((S)-4-acryloyl-2-methylpiperazin-1-yl)-9-chloro-10-(5-fluoro-1H-indazol-4-yl)-2,3-dihydro-5H-[1,4]thiazino[2,3,4-ij]quinazolin-5-one]",39.3%
2,"C=CC(=O)N1CCN(c2nc(=O)n3c4c(c(-c5cc(F)c(F)cc5F)c(Cl)cc24)SCC3)[C@@H](C)C1 [Example 409, 7-((S)-4-acryloyl-2-methylpiperazin-1-yl)-9-chloro-10-(2,4,5-trifluorophenyl)-2,3-dihydro-5H-[1,4]thiazino[2,3,4-ij]quinazolin-5-one]",94%
3,"C=CC(=O)N1CCN(c2nc(=O)n3c4c(c(-c5ccc(F)cc5)c(Cl)cc24)SC[C@@H]3CN2CCN(CC)CC2)[C@@H](C)C1 [Example 410, (S)-7-((S)-4-acryloyl-2-methylpiperazin-1-yl)-9-chloro-3((4-ethylpiperazin-1-yl)methyl)-10-(4-fluorophenyl)-2H-[1,4]thiazino[2,3,4-ij]quinazolin-5(3H)-one]",83.9%
4,"C=CC(=O)N1CCN(c2nc(=O)n3c4c(c(-c5ccc(F)cc5F)c(Cl)cc24)SC[C@@H]3CN2CCN(C)CC2)[C@@H](C)C1 [Example 411, (3S)-7-((S)-4-acryloyl-2-methylpiperazin-1-yl)-9-chloro-10-(2,4-difluorophenyl)-3-((4-methylpiperazin-1-yl)methyl)-2H-[1,4]thiazino[2,3,4-ij]quinazolin-5(3H)-one]",93.3%

# Same assay, conditions: 10 μM, 1 h; Table 4
row,Compound,"% CAF @ 10 μM, 1 h"
1,"C=CC(=O)N1CCN(c2nc(=O)n3c4c(c(-c5c(F)cc(F)cc5F)c(Cl)cc24)SC[C@H]3CCCN2C[C@@H]3C[C@H]2CO3)[C@@H](C)C1 [Example 339, (R)-3-(3-((1S,4S)-2-oxa-5-azabicyclo[2.2.1]heptan-5-yl)propyl)-7-((S)-4-acryloyl-2-methylpiperazin-1-yl)-9-chloro-10-(2,4,6-trifluorophenyl)-2H-[1,4]thiazino[2,3,4-ij]quinazolin-5(3H)-one]",96.6%
2,"C=CC(=O)N1CCN(c2nc(=O)n3c4c(c(-c5c(F)cc(F)cc5F)c(Cl)cc24)SC[C@@H]3CCCN2C[C@@H]3C[C@H]2CO3)[C@@H](C)C1 [Example 340, (S)-3-(3-((1S,4S)-2-oxa-5-azabicyclo[2.2.1]heptan-5-yl)propyl)-7-((S)-4-acryloyl-2-methylpiperazin-1-yl)-9-chloro-10-(2,4,6-trifluorophenyl)-2H-[1,4]thiazino[2,3,4-ij]quinazolin-5(3H)-one]",96.9%
3,"C=CC(=O)N1CCN(c2nc(=O)n3c4c(c(-c5ccc(F)cc5F)c(Cl)cc24)SC[C@H]3CCCN2C[C@@H]3C[C@H]2CO3)[C@@H](C)C1 [Example 341, (3R)-3-(3-((1S,4S)-2-oxa-5-azabicyclo[2.2.1]heptan-5-yl)propyl)-7-((S)-4-acryloyl-2-methylpiperazin-1-yl)-9-chloro-10-(2,4-difluorophenyl)-2H-[1,4]thiazino[2,3,4-ij]quinazolin-5(3H)-one]",96.5%
4,"C=CC(=O)N1CCN(c2nc(=O)n3c4c(c(-c5ccc(F)cc5F)c(Cl)cc24)SC[C@@H]3CCCN2C[C@@H]3C[C@H]2CO3)[C@@H](C)C1 [Example 342, (3S)-3-(3-((1S,4S)-2-oxa-5-azabicyclo[2.2.1]heptan-5-yl)propyl)-7-((S)-4-acryloyl-2-methylpiperazin-1-yl)-9-chloro-10-(2,4-difluorophenyl)-2H-[1,4]thiazino[2,3,4-ij]quinazolin-5(3H)-one]",94.7%
5,"C=CC(=O)N1CCN(c2nc(=O)n3c4c(c(-c5c(F)cc(F)cc5F)c(Cl)cc24)SC[C@@H]3CC2CCN(C)CC2)[C@@H](C)C1 [Example 343, (S)-7-((S)-4-acryloyl-2-methylpiperazin-1-yl)-9-chloro-3-((1-methylpiperidin-4-yl)methyl)-10-(2,4,6-trifluorophenyl)-2H-[1,4]thiazino[2,3,4-ij]quinazolin-5(3H)-one]",96.7%
6,"C=CC(=O)N1CCN(c2nc(=O)n3c4c(c(-c5c(F)cc(F)cc5F)c(Cl)cc24)SC[C@H]3CC2CCN(C)CC2)[C@@H](C)C1 [Example 344, (R)-7-((S)-4-acryloyl-2-methylpiperazin-1-yl)-9-chloro-3-((1-methylpiperidin-4-yl)methyl)-10-(2,4,6-trifluorophenyl)-2H-[1,4]thiazino[2,3,4-ij]quinazolin-5(3H)-one]",94.8%
7,"C=CC(=O)N1CCN(c2nc(=O)n3c4c(c(-c5ccc(F)cc5F)c(Cl)cc24)SC[C@H]3CC2CCN(C)CC2)[C@@H](C)C1 [Example 345, (3R)-7-((S)-4-acryloyl-2-methylpiperazin-1-yl)-9-chloro-10-(2,4-difluorophenyl)-3-((1-methylpiperidin-4-yl)methyl)-2H-[1,4]thiazino[2,3,4-ij]quinazolin-5(3H)-one]",82.4%
8,"C=CC(=O)N1CCN(c2nc(=O)n3c4c(c(-c5ccc(F)cc5F)c(Cl)cc24)SC[C@H]3CN2CCN(CC)CC2)[C@@H](C)C1 [Example 346, (3R)-7-((S)-4-acryloyl-2-methylpiperazin-1-yl)-9-chloro-10-(2,4-difluorophenyl)-3-((4-ethylpiperazin-1-yl)methyl)-2H-[1,4]thiazino[2,3,4-ij]quinazolin-5(3H)-one]",79.3%
9,"C=CC(=O)N1CCN(c2nc(=O)n3c4c(c(-c5ccc(F)cc5F)c(Cl)cc24)SC[C@H]3CN2CCN(CC(F)F)CC2)[C@@H](C)C1 [Example 347, (3R)-7-((S)-4-acryloyl-2-methylpiperazin-1-yl)-9-chloro-3-((4-(2,2-difluoroethyl)piperazin-1-yl)methyl)-10-(2,4-difluorophenyl)-2H-[1,4]thiazino[2,3,4-ij]quinazolin-5(3H)-one]",82.5%
10,"C=CC(=O)N1CCN(c2nc(=O)n3c4c(c(-c5ccc(F)cc5F)c(Cl)cc24)SC[C@H]3CC2CCN(CC(F)F)CC2)[C@@H](C)C1 [Example 348, (3R)-7-((S)-4-acryloyl-2-methylpiperazin-1-yl)-9-chloro-3-((1-(2,2-difluoroethyl)piperidin-4-yl)methyl)-10-(2,4-difluorophenyl)-2H-[1,4]thiazino[2,3,4-ij]quinazolin-5(3H)-one]",92%
11,"C=CC(=O)N1CCN(c2nc(=O)n3c4c(c(-c5ccc(F)cc5)c(Cl)cc24)SC[C@H]3CC2CCN(CC(F)F)CC2)[C@@H](C)C1 [Example 349, (R)-7-((S)-4-acryloyl-2-methylpiperazin-1-yl)-9-chloro-3-((1-(2,2-difluoroethyl)piperidin-4-yl)methyl)-10-(4-fluorophenyl)-2H-[1,4]thiazino[2,3,4-ij]quinazolin-5(3H)-one]",94%
12,"C=CC(=O)N1CCN(c2nc(=O)n3c4c(c(-c5ccc(F)cc5F)c(C(F)(F)F)cc24)SC[C@@H]3CN2CCN(CC)CC2)[C@@H](C)C1 [Example 350, (3S)-7-((S)-4-acryloyl-2-methylpiperazin-1-yl)-10-(2,4-difluorophenyl)-3-((4-ethylpiperazin-1-yl)methyl)-9-(trifluoromethyl)-2H-[1,4]thiazino[2,3,4-ij]quinazolin-5(3H)-one]",95%
13,"C=CC(=O)N1CCN(c2nc(=O)n3c4c(c(-c5c(F)cc(F)cc5F)c(Cl)cc24)SC[C@@H]3CN2CCN(CC)CC2)[C@@H](C)C1 [Example 351, (S)-7-((S)-4-acryloyl-2-methylpiperazin-1-yl)-9-chloro-3-((4-ethylpiperazin-1-yl)methyl)-10-(2,4,6-trifluorophenyl)-2H-[1,4]thiazino[2,3,4-ij]quinazolin-5(3H)-one]",74%
14,"C=CC(=O)N1CCN(c2nc(=O)n3c4c(c(-c5ccc(F)cc5F)c(C(F)(F)F)cc24)SC[C@@H]3CN2CCN(C3COC3)CC2)[C@@H](C)C1 [Example 352, (3S)-7-((S)-4-acryloyl-2-methylpiperazin-1-yl)-10-(2,4-difluorophenyl)-3-((4-(oxetan-3-yl)piperazin-1-yl)methyl)-9-(trifluoromethyl)-2H-[1,4]thiazino[2,3,4-ij]quinazolin-5(3H)-one]",96%
15,"C=CC(=O)N1CCN(c2nc(=O)n3c4c(c(-c5ccc(F)cc5F)c(C(F)(F)F)cc24)SC[C@@H]3CC2CCN(CC)CC2)[C@@H](C)C1 [Example 353, (3S)-7-((S)-4-acryloyl-2-methylpiperazin-1-yl)-10-(2,4-difluorophenyl)-3-((1-ethylpiperidin-4-yl)methyl)-9-(trifluoromethyl)-2H-[1,4]thiazino[2,3,4-ij]quinazolin-5(3H)-one]",97%
16,"C=CC(=O)N1CCN(c2nc(=O)n3c4c(c(-c5ccc(F)cc5F)c(Cl)cc24)SC[C@@H]3CN2CCN(CC)CC2)[C@@H](C)C1 [Example 354, (3S)-7-((S)-4-acryloyl-2-methylpiperazin-1-yl)-9-chloro-10-(2,4-difluorophenyl)-3-((4-ethylpiperazin-1-yl)methyl)-2H-[1,4]thiazino[2,3,4-ij]quinazolin-5(3H)-one]",96%
17,"C=CC(=O)N1CCN(c2nc(=O)n3c4c(c(-c5ccc(F)cc5F)c(Cl)cc24)SC[C@@H]3CN2CCN(C3COC3)CC2)[C@@H](C)C1 [Example 355, (3S)-7-((S)-4-acryloyl-2-methylpiperazin-1-yl)-9-chloro-10-(2,4-difluorophenyl)-3-((4-(oxetan-3-yl)piperazin-1-yl)methyl)-2H-[1,4]thiazino[2,3,4-ij]quinazolin-5(3H)-one]",96%
18,"C=CC(=O)N1CCN(c2nc(=O)n3c4c(c(-c5ccc(F)cc5F)c(Cl)cc24)SC[C@@H]3CN2CCN(CC(F)F)CC2)[C@@H](C)C1 [Example 356, (3S)-7-((S)-4-acryloyl-2-methylpiperazin-1-yl)-9-chloro-3-((4-(2,2-difluoroethyl)piperazin-1-yl)methyl)-10-(2,4-difluorophenyl)-2H-[1,4]thiazino[2,3,4-ij]quinazolin-5(3H)-one]",95%
